Test results as given in patent US20210115104A1, “AMYLIN ANALOGUES” (Zealand Pharma A/S, priority 2015, published 2021).
*1 amine or outer side, *2 acyl side, *3 side chain or, on linkers, in order; H or OH if unused. Where a SMILES comes first, the peptide text is derived from it. Bridges are numbered along the chain shown (N, C = ends). The star is where a group is joined. C20 diacid = O=C(O)CCCCCCCCCCCCCCCCCCC(=O)*; γGlu = O=C(O)[C@H](CCC(=O)[*:2])N[*:1]

What was measured:
[1] = Assessment of physical stability (Thioflavin T fibrillation); format: physicochemical; parameters: key: FND = fibrillation not detected; FD = fibrillation detected; details: 1 mg/ml, 40° C., ThT
Procedure: Solutions containing (i) 1 mg/ml of test peptide, 40 μM ThT and 50 mM phosphate (Ph) buffer (pH 7.0), (ii) 1 mg/ml of test peptide, 40 μM ThT and 50 mM histidine (His) buffer (pH 7.0), and (iii) 1 mg/ml of test peptide, 40 μM ThT and 50 mM acetate (Ac) buffer (pH 4.0), were loaded in a 96-well black fluorescence plate (clear bottom) in triplicate. Data were collected at fixed intervals of 10 min, each preceded by 300 s of automixing (agitation), over a period of 96 hours at 40° C. Physical stability, expressed as lag-time of fibril formation (in hours), was defined as the intersection between two linear regressions representing the initial stable phase and the growth phase.

[2] = Assessment of chemical stability (RP-HPLC normalized purity); format: physicochemical
Procedure: Samples of each test peptide were dissolved in MilliQ™ water, and the pH of the solution was adjusted to pH 4, pH 6, pH 7.5 or pH 9, respectively, using either HCl or NaOH. The final peptide concentration was 0.2 mg/ml. Samples were placed in glass vials and incubated at 40° C. The samples were analyzed by RP-HPLC on a C8 column with gradient elution using an ammonium formate/water eluent system, or on a C18 column with gradient elution using a trifluoroacetic acid/water eluent system. The area-percentage (area-%) of the main peak after incubation time T=t (relative to time T=0) was determined by UV spectroscopy at 220 nm.
The purity was first determined as follows:
Purity(area-%)=(area of main peak/total area of all peaks)×100.
The purity was then normalized between time points by setting purity at time 0 (T=0) to 100 for each pH value for a given peptide, as follows:
Normalised area-% at time t (T=t)=[area-%(T=t)/area-%(T=0)]×100.
The normalized purity values in Table 1 were determined after 7 days of incubation.
The chemical stability assessment described in Example 6 was repeated for four pairs of compounds, each differing only by the presence or absence of an Asn-Asn (N—N) doublet at positions 21 and 22.

Row | Fibrillation pH 4.0 (Ac) ([1]; 50 mM acetate buffer pH 4.0, 96 hours) | Fibrillation pH 7.0 (Phos.) ([1]; 50 mM phosphate buffer pH 7.0, 96 hours) | Normalized purity pH 4 (Table 5) ([2]; pH 4, repeat of Example 6 for pairs with/without Asn-Asn at 21-22) | Normalized purity pH 6 (Table 5) ([2]; pH 6, repeat of Example 6 for pairs with/without Asn-Asn at 21-22) | Normalized purity pH 7.5 (Table 5) ([2]; pH 7.5, repeat of Example 6 for pairs with/without Asn-Asn at 21-22) | Normalized purity pH 9 (Table 5) ([2]; pH 9, repeat of Example 6 for pairs with/without Asn-Asn at 21-22) | Structure (SMILES)
1 | FD | FD | – | – | – | – | CC[C@H](C)[C@H](NC(=O)[C@@H]1CCCN1C(=O)CNC(=O)[C@H](Cc1ccccc1)NC(=O)[C@H](CC(N)=O)NC(=O)[C@H](CC(N)=O)NC(=O)[C@H](CO)NC(=O)[C@H](CO)NC(=O)[C@H](Cc1c[nH]cn1)NC(=O)[C@@H](NC(=O)[C@H](CC(C)C)NC(=O)[C@H](Cc1ccccc1)NC(=O)[C@H](CC(N)=O)NC(=O)[C@H](C)NC(=O)[C@H](CC(C)C)NC(=O)[C@H](CCCNC(=N)N)NC(=O)[C@H](CCC(N)=O)NC(=O)[C@@H](NC(=O)[C@H](C)NC(=O)[C@@H]1CSSC[C@H](NC(=O)[C@@H](N)CCCCN)C(=O)N[C@@H](CC(N)=O)C(=O)N[C@@H]([C@@H](C)O)C(=O)N[C@@H](C)C(=O)N[C@@H]([C@@H](C)O)C(=O)N1)[C@@H](C)O)C(C)C)C(=O)N[C@@H](CC(C)C)C(=O)N1CCC[C@H]1C(=O)N1CCC[C@H]1C(=O)N[C@H](C(=O)N[C@@H](CC(N)=O)C(=O)N[C@H](C(=O)NCC(=O)N[C@@H](CO)C(=O)N[C@@H](CC(N)=O)C(=O)N[C@H](C(=O)N[C@@H](Cc1ccc(O)cc1)C(N)=O)[C@@H](C)O)C(C)C)[C@@H](C)O [Pramlintide, reference compound]
2 | – | – | A (A = >90%) | A (A = >90%) | A (A = >90%) | A (A = >90%) | CC[C@H](C)[C@H](NC(=O)[C@@H]1CCCN1C(=O)CNC(=O)[C@H](Cc1ccccc1)NC(=O)[C@H](CO)NC(=O)[C@H](CO)NC(=O)[C@H](Cc1c[nH]cn1)NC(=O)[C@H](Cc1c[nH]cn1)NC(=O)[C@H](CC(C)C)NC(=O)[C@H](Cc1ccccc1)NC(=O)[C@H](CCC(=O)O)NC(=O)[C@H](C)NC(=O)[C@H](CC(C)C)NC(=O)[C@H](CCCNC(=N)N)NC(=O)[C@H](CCC(N)=O)NC(=O)[C@@H](NC(=O)[C@H](C)NC(=O)[C@@H]1CSSC[C@H](NC(=O)[C@H](CCCNC(=N)N)NC(=O)CC[C@H](NC(=O)CCCCCCCCCCCCCCCCCCC(=O)O)C(=O)O)C(=O)N[C@@H](CC(N)=O)C(=O)N[C@@H]([C@@H](C)O)C(=O)N[C@@H](C)C(=O)N[C@@H]([C@@H](C)O)C(=O)N1)[C@@H](C)O)C(=O)N[C@@H](CC(C)C)C(=O)N1CCC[C@H]1C(=O)N1CCC[C@H]1C(=O)N[C@H](C(=O)N[C@@H](CC(N)=O)C(=O)N[C@H](C(=O)NCC(=O)N[C@@H](CO)C(=O)N[C@@H](CC(N)=O)C(=O)N[C@H](C(=O)N1CCC[C@H]1C(N)=O)[C@@H](C)O)C(C)C)[C@@H](C)O [Compound 97, reference compound] ({C20 diacid-γGlu}-RCNTATCATQRLAEFLHHSSFGPILPPTNVGSNTP-NH2; disulfide 2-7)
